Test results from the METLIN SMRT retention time set (Domingo-Almenara et al. 2019).

Experiment: gradient 5% acetonitrile 3 min, to 50% in 2 min, to 85% in 15 min, held 3 min, 100 µL/min
Conditions: column: Zorbax Extend-C18 2.1 x 50 mm; eluents: water / acetonitrile, 0.1% formic acid
How it was run: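 The system's dead and dwell volumes were 40 μL and 900 μL, with a Zorbax Extend-C18 column (2.1 × 50 mm, 1.8 μm) run at 100 μL/min in water and acetonitrile containing 0.1% formic acid each. Pure standards were analyzed in mixtures of ~100 molecules by HPLC–quadrupole time-of-flight mass spectrometry in positive and negative ionization mode. Retention time was assigned from computationally picked, manually inspected adduct peaks.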

| SMILES | RP-LC retention time |
| --- | --- |
| Cc1cc(C)cc(NC(=O)Cn2ccc3sccc3c2=O)c1 | 820 s |
| O=C(CCCc1ccccc1)N1CCN(c2nc(CN3CCOCC3)cs2)CC1 | 639 s |
| Cc1cccc(N2CCN(c3ccc4cc(S(=O)(=O)N5CCCC5)ccc4n3)CC2)c1C | 1150 s |
| Fc1ccc(Cc2nc3nccc(-c4ccsc4)n3n2)cc1 | 905 s |
| Cc1c(S(=O)(=O)NCc2ccccc2)c(C)n(C)c1-c1nnc(C2CCC2)o1 | 972 s |
| CCc1noc(NC(C)=O)c1-c1ccc(C)c(S(=O)(=O)NC2CCCCCC2)c1 | 909 s |
| Cc1ccc(-c2noc(-c3ccc4c(c3)OCCO4)n2)cc1 | 1250 s |
| CC1=NS(=O)(=O)N(C)C=C1C(=O)OCc1nc(-c2ccc(F)cc2)no1 | 952 s |
| O=C(c1ccc(F)c(Cl)c1)N1CCN(c2nc(CN3CCOCC3)cs2)CC1 | 638 s |
| O=C(O)c1cc2nc(-c3ccc(F)cc3)cc(C(F)(F)F)n2n1 | 880 s |
| CSc1ncccc1C(=O)N1CCCn2nc(-c3ccncc3)cc2C1 | 586 s |
| Cc1ccc(S(=O)(=O)N(C)C)cc1-c1nnc(-c2ccccc2Cl)o1 | 1010 s |
| O=C(OCc1nc2ccccc2s1)c1ccc([N+](=O)[O-])o1 | 848 s |
| CCc1ccc(CNC(=O)C2CCc3nc(N(CC)CC)ncc3C2)cc1 (centres undefined) | 786 s |
| CCOC(=O)c1c(S(=O)(=O)N2CCC(C(=O)Nc3nccs3)CC2)c(C)n(C)c1C | 740 s |
| O=C(CCn1nnc2cc(-c3noc(COc4ccc(F)cc4)n3)ccc21)N1CCCC1 | 877 s |
| COc1cc(=O)n2c(c1C(=O)Nc1ccc(Br)cc1C)CCCC2 | 757 s |
| CCCN1C(=O)COc2ccc(-c3csc(NC(=O)c4c(OC)cccc4OC)n3)cc21 | 944 s |
| O=C1Nc2cc(S(=O)(=O)NCCC3=CCCCC3)ccc2SC1C(=O)N1CCCC1 (centres undefined) | 858 s |
| CCn1ccc(C(=O)N2CCC[C@H]2c2nc(-c3ccccc3)n[nH]2)n1 | 662 s |
| CN1CCN(CCCNC(=O)c2cc(-c3cccnc3)nc3ccc(Br)cc23)CC1 | 542 s |
| COC(=O)c1ccc2c(=O)n(-c3ccc(C)cc3)c(N3CCN(c4ccccn4)CC3)nc2c1 | 728 s |
| Cc1cc2c(cc1S(=O)(=O)N1CCCC1C(=O)Nc1ccccc1F)OC(C)C(=O)N2 (centres undefined) | 809 s |

| SMILES | RP-LC retention time |
| --- | --- |
| CCOCCCN1C(=O)CN(C2CCCCCC2)C(=O)C1c1ccc(OC)cc1 (centres undefined) | 902 s |
| O=C(CN1CCc2ccccc2C1C(=O)N1CCCC1)Nc1ccc(Cl)cc1 (centres undefined) | 860 s |
| CC(=O)N1CCc2cc(C(=O)NCc3ccccc3)ccc21 | 736 s |
| CCSc1nnc(NC(=O)Cn2c(-c3cnccn3)nc3ccccc32)s1 | 701 s |
| CCOc1cc(CNc2ccc3[nH]c(=O)[nH]c3c2)cc(Cl)c1OCC | 700 s |
| O=C(NCc1ccco1)N1CC2CN(S(=O)(=O)c3cccc(F)c3)CC(C1)O2 | 744 s |
| CCc1nnc(-c2ccc3ccn(CC(=O)NCc4ccc(F)cc4)c3c2)o1 | 801 s |
| CC1(C)C(=O)NCCN1C(=O)c1cccc(Cl)c1 | 637 s |
| CC(=O)c1cccc(Nc2c(C(=O)N3CCOCC3)cnc3nc(C)ccc23)c1 | 584 s |
| Cc1ccc(-c2ncc(C(=O)NC(C)c3ccccn3)c(-c3ccncc3)n2)cc1 (centres undefined) | 685 s |
| CCn1ccc2c(cc(C(=O)Nc3ccc(Br)cc3)n2C)c1=O | 844 s |
| Cn1c(=O)n(CCN2CCOCC2)c(=O)c2c1nc1n2CCCN1c1ccc(Cl)cc1 | 643 s |
| COC(=O)Nc1ccc(-c2nc(N3CCOCC3)c3cnn(C4CCN(Cc5cccnc5)CC4)c3n2)cc1 | 665 s |
| COC(=O)c1ccc(NC(=O)C2CCCN(c3nc4ccccc4nc3OC)C2)cc1 (centres undefined) | 1120 s |
| O=C1C(c2cccs2)N(Cc2ccc3c(c2)OCO3)C(=O)CN1c1ccccc1 (centres undefined) | 899 s |
| CCn1nc(C)c(CCNC(=O)Nc2ccccc2C(F)(F)F)c1C | 672 s |
| COc1ccc(Cn2c(=O)c3sccc3n(Cc3nc(-c4ccccc4)no3)c2=O)cc1 | 1000 s |
| Cc1ccc(NC(=O)c2cc3c(=O)n(CC(C)C)ccc3n2C)cc1Cl | 1020 s |
| O=C(c1ccc(F)c(F)c1)N1CCc2nc(-c3ccccc3)ncc2C1 | 951 s |
| COc1ccc(C)cc1NC(=O)C(C)C1CCN(C(=O)Nc2ccc(Cl)cc2)CC1 (centres undefined) | 986 s |
| CN1C(=O)[C@H]2CN(Cc3ccc(F)cc3F)C[C@H]2C1=O | 587 s |
| O=C(c1ccccc1Cl)N1CCN=C1N1CCCCC1 | 638 s |
| CC1Oc2ccc(-c3csc(NC(=O)c4ccc(Br)cc4)n3)cc2NC1=O (centres undefined) | 990 s |

| SMILES | RP-LC retention time |
| --- | --- |
| CCc1cc(=O)n(CC(=O)Nc2cccc(Cl)c2C)c(N2CCOCC2)n1 | 771 s |
| Cc1ccc(CNc2nc(-c3nnc(-c4ccccc4)o3)nc3ccccc23)o1 | 991 s |
| CCc1cccc(NC(=O)Cn2c(N)nc(COC)cc2=O)c1 | 650 s |
| CCN(CC)S(=O)(=O)c1ccc2c(c1)CC(C(=O)N1CCCCCC1)N2C(C)=O (centres undefined) | 839 s |
| CS(=O)(=O)Nc1ccc(-c2noc(COc3ccc(Cl)cc3)n2)cc1 | 974 s |
| CCOCC(=O)N1CCCn2ccnc2C1C1CCCC1 (centres undefined) | 587 s |
| CCOc1cc(=O)n2c(c1C(=O)Nc1ccc(F)cc1F)CCCC2 | 726 s |
| O=C(CCCc1nc(-c2ccccc2)no1)Nc1nc(-c2ccccc2)cs1 | 1080 s |
| CCc1nc2nccc(-c3ccc(OC)cc3F)n2n1 | 778 s |
| Cc1nn(C)c(C)c1S(=O)(=O)N1CCC(Cc2nncn2-c2ccccc2)CC1 | 671 s |
| CCS(=O)(=O)c1ccc(-c2ccc(NC(=O)Cc3ccc(F)cc3)cc2)nn1 | 764 s |
| CN(C)CCNC(=O)Cn1ncn2nc(-c3ccccc3)cc2c1=O | 620 s |
| O=S(=O)(c1cc(F)ccc1F)N1CCC(c2noc(COCC3CC3)n2)CC1 | 1000 s |
| O=C(Nc1cc(Cl)ccc1F)c1cnc(-c2ccc(F)cc2)nc1-c1ccncc1 | 1050 s |
| O=C(NC1CCc2ccccc21)C1CCN(C(=O)c2ncn3c2COC(c2ccccc2)C3)CC1 (centres undefined) | 809 s |
| CCn1c(C2CCCN(C(=O)NCC(C)C)C2)nn(C)c1=O (centres undefined) | 628 s |
| Cc1ccc(F)cc1S(=O)(=O)N1CCC(n2c(-c3ccco3)nc3cccnc32)C1 (centres undefined) | 910 s |
| Cc1ccc(NC(=O)c2cn3c(n2)CCCC3)c(C)c1 | 644 s |
| CCN1C(=O)Cc2cc(C(=O)NC3CCCCC3)ccc21 | 736 s |
| CCCNC(=O)CCc1nc2ccccc2n(CC(=O)Nc2cccc(CC)c2)c1=O | 845 s |
| COc1ccccc1-c1nnc(-c2cc(S(=O)(=O)N3CCCCCC3)ccc2Cl)o1 | 1130 s |
| CCNC(=O)N1CCCC1c1nc(-c2ccccc2OC)no1 (centres undefined) | 698 s |
| Cc1nc(-c2ccccc2)sc1C(=O)N1CCC(CC(=O)N2CCOCC2)CC1 | 667 s |

| SMILES | RP-LC retention time |
| --- | --- |
| CCCn1cc(CCNS(=O)(=O)c2ccc(C(C)(C)C)cc2)c2cccnc21 | 1070 s |
| CCN1CCN(CCNC(=O)c2cc3n(n2)CCCN(Cc2ccc(F)cc2)C3=O)CC1 | 593 s |
| CCN1CCN(c2cc(C)c3cc(NC(=O)/C=C/c4ccc(OCCC(C)C)cc4)ccc3n2)CC1 | 747 s |
| CC1CCN(C(=O)C2=CN(c3ccccc3)c3ccccc3S2(=O)=O)CC1 | 919 s |
| CN1C(=O)c2cc(S(=O)(=O)Nc3ccc(Cl)cc3)ccc2Oc2cccnc21 | 950 s |
| CN(C)S(=O)(=O)c1ccc(C(=O)Nc2nc(-c3ccc4c(c3)NC(=O)CO4)cs2)cc1 | 810 s |
| O=C(C1CC1)N1CCC(COCc2ccccc2)CC1 | 831 s |
| O=c1c2cc3c(cc2nc(SCc2nc(-c4ccccc4)no2)n1CC1CCCO1)OCO3 (centres undefined) | 1100 s |
| O=C(NCCCN1CCOCC1)c1ccc(CS(=O)Cc2cccc(Cl)c2)o1 (centres undefined) | 610 s |
| CCOc1ccc(NC(=O)C2CCN(S(C)(=O)=O)c3ccccc3O2)cc1 (centres undefined) | 877 s |
| Cc1ccc(-c2csc(Nc3ccccn3)n2)cc1 | 918 s |
| CCN1C=C(C(=O)OCc2ccc(C)cc2)C(C)=NS1(=O)=O | 1030 s |
| Cc1c(C(=O)NCC2CC2)cnn1-c1ccc(-c2nc(C(C)(C)C)no2)cn1 | 1020 s |
| O=C(Cn1cccc1-c1nc(-c2ccccc2)cs1)N1CCN(C(=O)c2ccco2)CC1 | 899 s |
| O=C(Nc1ccc2c(c1)OCO2)C1CCN(c2cc(N3CCCC3)ncn2)CC1 | 642 s |
| O=C(Nc1ccc2c(c1)OCCO2)C1CCN(c2cc(N3CCCCC3)ncn2)CC1 | 667 s |
| Cc1ccc(-c2nc3cccnc3n2CCCNC(=O)NCc2ccco2)cc1 | 674 s |
| CC(C)CC(=O)N1c2nc(-c3ccccc3)nn2C2(CCCCC2)[C@@H]2CCCC[C@@H]21 | 674 s |
| CCOc1ccc(S(=O)(=O)[C@H]2CS(=O)(=O)C[C@@H]2N2CCC(C(=O)OC)CC2)cc1 | 858 s |
| CCCn1c(=O)c(C)nc2cc(-c3noc(COc4ccccc4)n3)ccc21 | 1070 s |
